{"source": "patent US6602664B2", "about": "(priority 1998, dated 2003)", "key": {"[1]": {"tested_on": "HIV-1 replication in human PBM cells", "assay": "microbe, parasite or virus in culture", "assay_type": "cell-based", "protocol": "Cells and viruses. […] Antimicrobial Agents Chemother 1992;36(11): 2423-2431.\nCell pellets were washed, centrifuged, lysed and the proviral DNA extracted as previously described. Cytotoxicity of the compounds was determined using the Promega Cell Titer 96 dye uptake assay (Madison, Wis.) in 1-2 day PHA-stimulated PBM cells after 5 days in culture. The median effective concentration (EC50) and inhibitory concentration (IC50) were derived from the computer-generated median effect plot of the dose-effect data, as described previously."}, "[2]": {"tested_on": "recombinant HIV-1 virus isolates", "assay_type": "cell-based", "from_the_text": "The aim of the study was to determine the potency of the inhibitory effect of a new generation of NRTIs on Multi Drug Resistant isolates and to compare it with their effect on wild-type HIV-1 isolates. All recombinant viruses were taken from the VIRCO repository of phenotypically and genotypically characterized virus isolates. Hirsch et al. Antiretroviral Drug Resistance Testing in Adults with HIV Infection. JAMA; 1998: 79(24) 1984-1991. See also Pauwels et al. Comprehensive HIV drug Resistance monitoring using rapid, high-throughput phenotypic and genotypic assays with correlative data analysis. Antiviral Therapy, 1998: 3: 35 Abstract 51.\nPhenotypic drug susceptibility determination of recombinant virus isolates is described in Hertogs et al. A Rapid Method for Simultaneous Detection of Phentypic Resistance to Inhibitors of Protease and Reverse Transcriptase in Recombinant HIV-1 Isolates from Patients Treated with Antiretroviral Drugs. Antimicrob. Agents Chemother. 1998; 42(2): 269-276. The basic principle of the Antivirogram® technology is the construction of chimeric HIV-1 strains composed of the protease (PR) and reverse transcriptase (RT) gene sequences which are isolated and amplified from patient viral RNA. Amplicons are subsequently transfected into CD4+T cells together with a standard laboratory isogenic (HXB2) HIV-1 DNA construct from which the PR/RT gene sequences were deleted. After homologous recombination, new viruses whose diversity reflects the original population amplified from the plasma are produced at high level from these cells.\nThe virus infectivity (CCID50) is determined by an end-point dilution method. The titer is calculated from the degree of infection, measured by the intensity of reporter-gene signal as generated by serial dilutions of the virus shock. The chimeric (clinical isolates and wild-type reference) viruses are then analyzed for their phenotypic sensitivity (i.e. susceptibility) to the different PR and RT-inhibitors in an automated reporter gene-based assay using serial dilutions of the compound. The standardisation of the Antivirogram®n assay allows for simultaneous testing of all clinically approved drugs in one 384-well microtiter plate. The experimental drugs are included in separate plates. Each plate contains multiple replicates of mock-infected wells, virus-infection control wells and blank (medium-only) well. All plates are tested in duplicate. 50% Inhibitory concentrations are calculated based on reporter signals obtained through optical reading of 384-well plates containing serial dilutions of compounds, a normalised quantity of virus and by taking into account all relevant control wells. Approval (or not) is done according to critical ranges and settings as described in the corresponding VIRCO Standard Operating Procedure.\nA more detailed description of the protocol is as follows. Samples were stored frozen. […] To confirm the genotypic pattern, genotyping (ABI-sequencing) was performed after recombination and culture of the laboratory strains by analysis of cell viability, calculation of results (dose-response curves, IC50 values), and reporting of data."}}, "note": "Structures can show the parent of a compound that is named as a salt. Where two headings read alike, the source gives them in different places."}
{"smiles": "Nc1ccn([C@@H]2CS[C@H](CO)O2)c(=O)n1", "note": "[3TC, (−)-β-2′,3′-dideoxy-3′-thiacytidine]", "values": [{"measurement": "EC50", "setting": "[1]; Human immunodeficiency virus 1, PBMC, Table 2, human PBMC", "value": 6.7, "unit": "nM"}, {"measurement": "EC90", "setting": "[1]; Human immunodeficiency virus 1, PBMC, Table 2, human PBMC, read-out: EC90", "value": 51, "unit": "nM"}, {"measurement": "m ± SE (slope of median effect plot)", "setting": "[1]; Table 2, human PBMC", "value": "1.08 ± 0.15"}, {"measurement": "fold Resistance", "setting": "[2]; RT genotype D67D/N, K70R, M184V, G333E", "value": ">99"}, {"measurement": "fold Resistance", "setting": "[2]; RT genotype D67N, K70R, K219Q/K, 181C/Y", "value": 3.7}, {"measurement": "fold Resistance", "setting": "[2]; RT genotype K70R, K219Q", "value": 1}, {"measurement": "fold Resistance", "setting": "[2]; RT genotype M41L, D67N, K70R, K103N, L210W, T215Y, K219N/K", "value": 8.25}, {"measurement": "fold Resistance", "setting": "[2]; RT genotype M41L, L210L, T215Y, Y181C/Y, M184M/V", "value": 3}, {"measurement": "fold Resistance", "setting": "[2]; RT genotype M41L, L210W, T215Y", "value": 0.4}, {"measurement": "fold Resistance", "setting": "[2]; RT genotype M41L, T69S-V-T, L210W, T215Y, G333E", "value": ">65"}, {"measurement": "fold Resistance", "setting": "[2]; RT genotype M41L, T215Y, M184V", "value": ">99"}, {"measurement": "fold Resistance", "setting": "[2]; RT genotype T69G, Q151M, M184V/M", "value": ">65"}, {"measurement": "fold Resistance", "setting": "[2]; RT genotype T69I, K70R, Q151M, M184V", "value": ">65"}, {"measurement": "fold Resistance", "setting": "[2]; RT genotype T69S-E, M184I, T215Y", "value": ">65"}, {"measurement": "fold Resistance", "setting": "[2]; RT genotype T215Y", "value": 1.5}, {"measurement": "fold Resistance", "setting": "[2]; recombinant isolate, RT genotype K70R", "value": 1}]}
{"smiles": "Nc1nc(N)c2ncn([C@H]3CO[C@@H](CO)O3)c2n1", "note": "[DAPD, β-D-dioxolanyl-2,6-diaminopurine]", "values": [{"measurement": "EC50", "setting": "[1]; Table 3, human PBMC", "value": 1810, "unit": "nM"}, {"measurement": "m ± SE (slope of median effect plot)", "setting": "[1]; Table 3, human PBMC", "value": "1.40 ± 0.14"}, {"measurement": "EC90", "setting": "[1]; Table 3, human PBMC, read-out: EC90", "value": 8680, "unit": "nM"}]}
{"smiles": "CC(C)(C)NC(=O)[C@@H]1CN(Cc2cccnc2)CCN1C[C@@H](O)C[C@@H](Cc1ccccc1)C(=O)N[C@H]1c2ccccc2C[C@H]1O", "note": "[Indinavir, {1(1,S,2R),5(S)]-2,3,5-trideoxy-N-(2,3-dihydro-2-hydroxy-1H-inden-1-yl)-5-[2-[[(1,1-dimethylethyl)amino]carbonyl]4-(3-pyridinylmethyl)-1-piperazinyl]-2-(phenylmethyl)-D-erythro-pentoamide sulfate]", "values": [{"measurement": "m ± SE (slope of median effect plot)", "setting": "[1]", "value": "0.86 ± 0.17"}, {"measurement": "EC90", "setting": "[1]; Human immunodeficiency virus 1, PBMC", "value": 19, "unit": "nM"}, {"measurement": "inhibition at 1 µM", "setting": "[1]; Human immunodeficiency virus 1, PBMC, 144 h, concentration 0.001 mM, day 6, read-out: Inhibition %", "value": 29.9, "unit": "%"}, {"measurement": "inhibition at 10 µM", "setting": "[1]; Human immunodeficiency virus 1, PBMC, 144 h, concentration 0.01 mM, day 6, read-out: Inhibition %", "value": 88.7, "unit": "%"}, {"measurement": "EC50", "setting": "[1]; Human immunodeficiency virus 1, PBMC, Table 3A, human PBMC", "value": 1.5, "unit": "nM"}]}
